Counter-ions that a name gives are not always drawn. Like-named read-outs stand apart in the source and are kept apart here.
Columns and labels:
[1] = test system: PC-9 cells (EGFR Ex19Del); test: Potency Assay: pERK (SOS1 pERK IC50 Assay, AlphaLISA SureFire Ultra p-ERK1/2); format: cell-based; details: Homo sapiens, read-out: SOS1 pERK IC50
Summary of the method: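 PC-9 (EGFR Ex19Del) cells plated overnight, then treated 1 h at 37° C. with 10-point 3-fold dilutions (top 10 μM final) in duplicate. Lysate pERK1/2 measured by AlphaLISA SureFire Ultra; IC50 from 4-parameter sigmoidal fit.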

[2] = target: T1, SOS1 catalytic domain (residues 564-1049) (Homo sapiens, UniProt Q07889); test: Potency Assay: binding affinity to SOS1 using Surface Plasmon Resonance (SPR); set-up: SOS1 catalytic domain (residues 564-1049) immobilized on a sensor chip; details: immobilized SOS1 catalytic domain (residues 564-1049), read-out: SOS1 SPR Equilibrium Kd
T1 sequence (Q07889 564-1049): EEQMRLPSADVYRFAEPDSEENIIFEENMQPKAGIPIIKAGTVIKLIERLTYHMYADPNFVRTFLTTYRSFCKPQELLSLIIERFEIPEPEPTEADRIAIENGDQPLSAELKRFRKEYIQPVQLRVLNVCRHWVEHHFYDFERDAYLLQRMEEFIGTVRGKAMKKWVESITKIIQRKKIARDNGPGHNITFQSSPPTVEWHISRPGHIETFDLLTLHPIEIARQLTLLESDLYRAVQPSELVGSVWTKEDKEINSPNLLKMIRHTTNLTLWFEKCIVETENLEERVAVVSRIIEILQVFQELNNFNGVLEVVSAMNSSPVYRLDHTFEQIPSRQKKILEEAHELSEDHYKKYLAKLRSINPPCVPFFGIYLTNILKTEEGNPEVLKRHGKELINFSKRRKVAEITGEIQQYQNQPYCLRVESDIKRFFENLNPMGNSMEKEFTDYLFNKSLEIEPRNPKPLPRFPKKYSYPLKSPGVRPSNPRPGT
Method: Data was reported as equilibrium dissociation constant (Kd) values.
Using a GE Biacore 8K SPR instrument, avi-tagged SOS1 catalytic domain protein was immobilized to a level of approximately 6000 response units (RU) on a streptavidin-coated SPR sensor chip in assay buffer containing 0.01 M HEPES, 0.15 M NaCl and 0.05% v/v Surfactant P20. […] For each test compound, a separate 0 μM sample was generated for use during subsequent double reference subtraction. Serially for each test compound, individual dilution samples were flowed over the immobilized SOS1 protein at a flow rate of 50 μL/minute to monitor the association with SOS1. Dissociation of bound test compound from the SOS1 protein was immediately monitored by flowing assay buffer over the sensor surface and monitoring the decrease in binding signal back to the baseline level seen in the absence of compound. This was repeated for all compound dilutions in each series. The binding level response for each test compound concentration was noted immediately prior to the end of the association phase, and a secondary plot generated showing binding response level versus test compound concentration generated for each compound dilution series.

[3] = target: T1, SOS1 catalytic domain (residues 564-1049); test: Mode of Action Assay: inhibition of SOS1 nucleotide exchange activity (SOS1 TR-FRET IC50 Assay)
[4] = PC-9 cells (EGFR Ex19Del), 1 hour incubation, AlphaLISA p-ERK1/2

| Structure (SMILES) | IC50 [1, 4] [nM] | Kd [2] [nM] | IC50 [3] [nM] | IC50 ([1]; PC-9, 1 h) [nM] |
| --- | --- | --- | --- | --- |
| CC(C)N1CC(C)(C(=O)N2Cc3nc(Cl)nc(N[C@H](C)c4cccc(C(F)F)c4F)c3C2)C1 [Example 338] | < 1000 | < 400 | < 1000 | – |
| C[C@@H](Nc1nc(Cl)nc2c1CN(C(=O)C1(C)CN(C3COC3)C1)C2)c1cccc(C(F)F)c1F [Example 335] | < 1000 | < 400 | < 1000 | – |
| COc1nccnc1C(=O)N1CCc2nc(Cl)nc(N[C@H](C)c3cc(N)cc(C(F)(F)F)c3)c2C1 [Example 231] | > 1000 | > 400 | > 1000 | – |
| COCC1(S(=O)(=O)N2CCc3nc(Cl)nc(N[C@H](C)c4cc(N)cc(C(F)(F)F)c4)c3C2)CCC1 [Example 448, N-[(1R)-1-[3-amino-5-(trifluoromethyl)phenyl]ethyl]-2-chloro-6-{[1-(methoxymethyl)cyclobutyl]sulfonyl}-5H,6H,7H,8H-pyrido[4,3-d]pyrimidin-4-amine] | > 1000 | < 400 | < 1000 | – |
| C[C@@H](Nc1nc(Cl)nc2c1CN(C(=O)N1CCC3(CCN3)CC1)C2)c1cccc(C(F)F)c1F [Example 390] | < 1000 | < 400 | < 1000 | – |
| C[C@@H](Nc1nc(Cl)nc2c1CN(C(=O)C1(N)COC1)C2)c1cccc(C(F)F)c1F [Example 285] | < 1000 | < 400 | < 1000 | – |
| C[C@@H](Nc1nc(Cl)nc2c1CN(C(=O)C1(C#N)CNC1)C2)c1cccc(C(F)F)c1F [Example 328] | < 1000 | < 400 | < 1000 | – |
| C[C@@H](Nc1nc(Cl)nc2c1CN(C(=O)c1csc(C3CCNCC3)n1)C2)c1cc(N)cc(C(F)(F)F)c1 [Example 92] | > 1000 | < 400 | > 1000 | – |
| C[C@@H](Nc1nc(Cl)nc2c1CN(C(=O)N1CC3CC(C1)N3C)C2)c1cccc(C(F)F)c1F [Example 420] | < 1000 | < 400 | < 1000 | – |
| C[C@@H](Nc1nc(Cl)nc2c1CC(N1CCOCC1)CC2)c1cccc(C(F)(F)F)c1 (stereo partly drawn) [Example 435] | > 1000 | < 400 | < 1000 | – |
| C[C@@H](Nc1nc(Cl)nc2c1CN(C(=O)C1(C)CCN(C3COC3)CC1)C2)c1cccc(C(F)F)c1F [Example 327] | < 1000 | < 400 | < 1000 | – |
| C[C@@H](Nc1nc(Cl)nc2c1CN(S(=O)(=O)N1CCOCC1)CC2)c1cccc(C(F)(F)CO)c1 [Example 181] | < 1000 | < 400 | < 1000 | – |
| C[C@@H](Nc1nc(Cl)nc2c1CN(C(=O)N1CCNc3ncccc31)C2)c1cc(N)cc(C(F)(F)F)c1 [Example 138] | < 1000 | < 400 | < 1000 | – |
| COC1(C(=O)N2Cc3nc(Cl)nc(N[C@H](C)c4cccc(C(F)(F)F)c4)c3C2)CCNCC1 [Example 315] | < 1000 | < 400 | < 1000 | – |
| Cc1c([C@@H](C)Nc2nc(Cl)nc3c2CN(C(=O)N2CCOCC2)C3)cccc1C(F)(F)F [Example 477, 2-chloro-N-[(1R)-1-[2-methyl-3-(trifluoromethyl)phenyl]ethyl]-6-(morpholine-4-carbonyl)-5H,6H,7H-pyrrolo[3,4-d]pyrimidin-4-amine] | < 1000 | < 400 | < 1000 | – |
| COc1cccnc1C(=O)N1CCc2nc(Cl)nc(N[C@H](C)c3cc(N)cc(C(F)(F)F)c3)c2C1 [Example 232] | > 1000 | > 400 | > 1000 | – |
| C[C@@H](Nc1nc(Cl)nc2c1CC(N1CCN(C3CC3)CC1)CC2)c1cccc(C(F)(F)CO)c1 (stereo partly drawn) [Example 434] | < 1000 | < 400 | < 1000 | – |

| Structure (SMILES) | IC50 [1, 4] [nM] | Kd [2] [nM] | IC50 [3] [nM] | IC50 ([1]; PC-9, 1 h) [nM] |
| --- | --- | --- | --- | --- |
| C[C@@H](Nc1nc(Cl)nc2c1C[N+](=C(N(C)C)N(C)C)C2)c1cccc(C(F)F)c1F [Example 529, 1-[2-chloro-4-[[(1R)-1-[3-(difluoromethyl)-2-fluoro-phenyl]ethyl]amino]-5,7-dihydropyrrolo[3,4-d]pyrimidin-6-ium-6-ylidene]-N,N,N′,N′-tetramethyl-methanediamine formate] | – | < 400 | < 1000 | > 1000 |
| CNCc1ccccc1-c1cccc(C(C)Nc2nc(Cl)nc3c2CN(C(=O)N2CCOCC2)C3)c1 (stereo not drawn) [Example 32, [2-chloro-4-[1-[3-[2-(methylaminomethyl)phenyl]phenyl]ethylamino]-5,7-dihydropyrrolo[3,4-d]pyrimidin-6-yl]-morpholino-methanone] | < 1000 | < 400 | – | – |
| C[C@@H](Nc1nc(Cl)nc2c1CN(S(=O)(=O)C1CCNCC1)C2)c1cc(N)cc(C(F)(F)F)c1 [Example 187] | > 1000 | < 400 | – | – |
| CCc1cc(N)cc(C(C)Nc2nc(Cl)nc3c2CN(C(=O)N2CCOCC2)C3)c1 (stereo not drawn) [Example 41, [4-[1-(3-amino-5-ethyl-phenyl)ethylamino]-2-chloro-5,7-dihydropyrrolo[3,4-d]pyrimidin-6-yl]-morpholino-methanone] | < 1000 | < 400 | – | – |
| COc1cncc(C(=O)N2CCc3nc(Cl)nc(N[C@H](C)c4cc(N)cc(C(F)(F)F)c4)c3C2)n1 [Example 237] | > 1000 | > 400 | – | – |
| C[C@@H](Nc1nnc(Cl)c2c1CN(C(=O)N1CCOCC1)C2)c1cc(N)cc(C(F)(F)F)c1 [Example 35, [1-[[(1R)-1-[3-amino-5-(trifluoromethyl)phenyl]ethyl]amino]-4-chloro-5,7-dihydropyrrolo[3,4-d]pyridazin-6-yl]-morpholino-methanone] | > 1000 | > 400 | – | – |
| C[C@@H](Nc1nc(C(F)(F)F)nc2c1CN(C(=O)N1CCOCC1)C2)c1cc(N)cc(C(F)(F)F)c1 [Example 127, N-[(1R)-1-[3-amino-5-(trifluoromethyl)phenyl]ethyl]-6-(morpholine-4-carbonyl)-2-(trifluoromethyl)-5H,6H,7H-pyrrolo[3,4-d]pyrimidin-4-amine] | – | < 400 | > 1000 | – |
| C[C@@H](Nc1nc(Cl)nc2c1CN(c1ncccc1N1CCOCC1)CC2)c1cc(N)cc(C(F)(F)F)c1 [Example 186, (R)—N-(1-(3-amino-5-(trifluoromethyl)phenyl)ethyl)-2-chloro-6-(3-morpholinopyridin-2-yl)-5,6,7,8-tetrahydropyrido[4,3-d]pyrimidin-4-amine] | > 1000 | > 400 | – | – |
| CNCc1ccccc1-c1ccc(C(C)Nc2nc(Cl)nc3c2CN(C(=O)N2CCOCC2)C3)s1 (stereo not drawn) [Example 39, [2-chloro-4-[1-[5-[2-(methylaminomethyl)phenyl]-2-thienyl]ethylamino]-5,7-dihydropyrrolo[3,4-d]pyrimidin-6-yl]-morpholino-methanone] | < 1000 | < 400 | – | – |
| CC(=O)N1CC(C)(C(=O)N2Cc3nc(Cl)nc(N[C@H](C)c4cccc(C(F)F)c4F)c3C2)C1 [Example 346] | – | < 400 | < 1000 | – |
| Cc1nc2c(c(N[C@H](C)c3cc(N)cc(C(F)(F)F)c3)n1)CN(C)C2 [Example 43] | – | > 400 | > 1000 | – |
| C[C@@H](Nc1nc(Cl)nc2c1CN(S(=O)(=O)c1cn[nH]c1)C2)c1cc(N)cc(C(F)(F)F)c1 [Example 173] | – | > 400 | > 1000 | – |
| Cc1nc2c(c(N[C@H](C)c3cc(N)cc(C(F)(F)F)c3)n1)CN(C(=O)N1CC(O)C1)C2 [Example 352] | > 1000 | < 400 | – | – |
| C[C@@H](Nc1nc(Cl)nc2c1CN(C1CCOCC1)CC2)c1cc(N)cc(C(F)(F)F)c1 [Example 22, N-[(1R)-1-[3-amino-5-(trifluoromethyl)phenyl]ethyl]-2-chloro-6-tetrahydropyran-4-yl-7,8-dihydro-5H-pyrido[4,3-d]pyrimidin-4-amine] | < 1000 | < 400 | – | – |
| COC1CN([C@H]2CCc3nc(Cl)nc(N[C@H](C)c4cc(N)cc(C(F)(F)F)c4)c3C2)C1 [Example 432] | – | < 400 | < 1000 | – |
| Cc1nc2c(c(N[C@H](C)c3cc(N)cc(C(F)(F)F)c3)n1)CN(C(=O)N1CCN(C)CC1)C2 [Example 351] | < 1000 | < 400 | – | – |
